± gives the expanded uncertainty stated by the source.
Assay: refractive index (other wavelength) (dimensionless)
Conditions: 101.33 kPa, Liquid, Minimum Deviation technique

Structure (SMILES): [2H]O[2H] [water-d2]
- refractive index (288.35 K, Wavelength=543.5 nm): 1.33 ± 0.0004
- refractive index (288.35 K, Wavelength=594.1 nm): 1.3283 ± 0.0004
- refractive index (288.35 K, Wavelength=632.8 nm): 1.3272 ± 0.0004
- refractive index (293.29 K, Wavelength=543.5 nm): 1.3298 ± 0.0004
- refractive index (293.29 K, Wavelength=594.1 nm): 1.3281 ± 0.0004
- refractive index (293.29 K, Wavelength=632.8 nm): 1.327 ± 0.0004
- refractive index (298.12 K, Wavelength=543.5 nm): 1.3293 ± 0.0004
- refractive index (298.12 K, Wavelength=594.1 nm): 1.3278 ± 0.0004
- refractive index (298.12 K, Wavelength=632.8 nm): 1.3267 ± 0.0004
- refractive index (303.15 K, Wavelength=543.5 nm): 1.3285 ± 0.0004
- refractive index (303.15 K, Wavelength=594.1 nm): 1.3271 ± 0.0004
- refractive index (303.15 K, Wavelength=632.8 nm): 1.326 ± 0.0004
- refractive index (308.09 K, Wavelength=543.5 nm): 1.328 ± 0.0004
- refractive index (308.09 K, Wavelength=594.1 nm): 1.3266 ± 0.0004
- refractive index (308.09 K, Wavelength=632.8 nm): 1.3254 ± 0.0004
- refractive index (313.11 K, Wavelength=543.5 nm): 1.3275 ± 0.0004
- refractive index (313.11 K, Wavelength=594.1 nm): 1.3259 ± 0.0004
- refractive index (313.11 K, Wavelength=632.8 nm): 1.3249 ± 0.0004
- refractive index (318.13 K, Wavelength=543.5 nm): 1.3269 ± 0.0004
- refractive index (318.13 K, Wavelength=594.1 nm): 1.3254 ± 0.0004
- refractive index (318.13 K, Wavelength=632.8 nm): 1.3243 ± 0.0004
- refractive index (323.14 K, Wavelength=543.5 nm): 1.3263 ± 0.0004
- refractive index (323.14 K, Wavelength=594.1 nm): 1.3248 ± 0.0004
- refractive index (323.14 K, Wavelength=632.8 nm): 1.3237 ± 0.0004
- refractive index (328.12 K, Wavelength=543.5 nm): 1.3251 ± 0.0004
- refractive index (328.12 K, Wavelength=594.1 nm): 1.3236 ± 0.0004
- refractive index (328.12 K, Wavelength=632.8 nm): 1.3225 ± 0.0004
- refractive index (333.06 K, Wavelength=543.5 nm): 1.3244 ± 0.0004
- refractive index (333.06 K, Wavelength=594.1 nm): 1.3229 ± 0.0004
- refractive index (333.06 K, Wavelength=632.8 nm): 1.3219 ± 0.0004
- refractive index (337.98 K, Wavelength=543.5 nm): 1.3237 ± 0.0004
- refractive index (337.98 K, Wavelength=594.1 nm): 1.3221 ± 0.0004
- refractive index (337.98 K, Wavelength=632.8 nm): 1.3211 ± 0.0004

Reference: the NIST ThermoML archive (doi:10.1021/je200969r)
